From patent US20070161807A1, “Method for manufacturing optically pure coumaryl amino acids and the novel coumaryl aminoacids thus obtained” (INSERM (INSTITUT NATIONAL DE LA SANT'E ET DE LA RECHERCHE …, priority 2004, published 2007)

Experiment: Physicochemical properties: absorption and fluorescence (Table 1)
Conditions: for Abs. (nm): absorption wavelength; for Abs. (nm) / Em. (nm): determined in 95% ethanol; for Em. (nm): emission wavelength

Compound | QY quantum yield | ε (cm^−1 M^−1) extinction coefficient | Abs. (nm) | Em. (nm)
N[C@@H](Cc1cc(=O)oc2cc(O)ccc12)C(=O)O.O=C(O)C(F)(F)F [Example 6, (1S)-1-carboxy-2-(7-hydroxy-2-oxo-2H-chromen-4-yl)-ethyl ammonium trifluoroacetate] | 0.49 | 9000 cm⁻¹ M⁻¹ | 329 nm | 464 nm
COc1ccc2c(C[C@H](N)C(=O)O)cc(=O)oc2c1.CS(=O)(=O)O [Example 7, (1S)-1-carboxy-2-(7-methoxy-2-oxo-2H-chromen-4-yl)-ethyl ammonium methanesulfonate] | 0.18 | 12000 cm⁻¹ M⁻¹ | 324 nm | 383 nm
COc1ccc2c(C[C@@H](N)C(=O)O)cc(=O)oc2c1.O=C(O)C(F)(F)F [Example 8, (1R)-1-carboxy-2-(7-methoxy-2-oxo-2H-chromen-4-yl)-ethyl ammonium trifluoroacetate] | 0.15 | 14000 cm⁻¹ M⁻¹ | 323 nm | 386 nm
COc1cc2oc(=O)cc(C[C@H](N)C(=O)O)c2cc1OC.O=C(O)C(F)(F)F [Example 9, (1S)-1-carboxy-2-(6,7-dimethoxy-2-oxo-2H-chromen-4-yl)-ethyl ammonium trifluoroacetate] | 0.60 | 12000 cm⁻¹ M⁻¹ | 345 nm | 445 nm
N[C@@H](Cc1cc(=O)oc2cc(O)c(Cl)cc12)C(=O)O.O=C(O)C(F)(F)F [Example 10, (1S)-1-carboxy-2-(6-chloro, 7-hydroxy-2-oxo-2H-chromen-4-yl)-ethyl ammonium trifluoroacetate] | 0.54 | 10300 cm⁻¹ M⁻¹ | 331 nm | 465 nm
CCOc1ccc2c(C[C@H](N)C(=O)O)cc(=O)oc2c1.O=C(O)C(F)(F)F [Example 11, (1S)-1-carboxy-2-(7-ethoxy-2-oxo-2H-chromen-4-yl)-ethyl ammonium trifluoroacetate] | 0.17 | 13300 cm⁻¹ M⁻¹ | 325 nm | 387 nm
COc1cc(O)c2c(C[C@H](N)C(=O)O)cc(=O)oc2c1.O=C(O)C(F)(F)F [Example 12, (1S)-1-carboxy-2-(5-hydroxy, 7-methoxy-2-oxo-2H-chromen-4-yl)-ethyl ammonium trifluoroacetate] | 0.50 | 6800 cm⁻¹ M⁻¹ | 329 nm | 421 nm
N[C@@H](Cc1c[nH]c2ccccc12)C(=O)O [W, tryptophan, reference compound] | 0.12 | 5300 cm⁻¹ M⁻¹ | 278 nm | 352 nm

Other lines, results leading:

QY quantum yield | ε (cm^−1 M^−1) extinction coefficient | Abs. (nm) | Em. (nm) | Compound
0.18 | 12700 cm⁻¹ M⁻¹ | 323 nm | 421 nm | COc1cc(O)cc2oc(=O)cc(C[C@H](N)C(=O)O)c12.O=C(O)C(F)(F)F [Example 13, (1S)-1-carboxy-2-(7-hydroxy, 5-methoxy-2-oxo-2H-chromen-4-yl)-ethyl ammonium trifluoroacetate]
0.39 | 11500 cm⁻¹ M⁻¹ | 324 nm | 419 nm | COc1cc(OC)c2c(C[C@H](N)C(=O)O)cc(=O)oc2c1.O=C(O)C(F)(F)F [Example 14, (1S)-1-carboxy-2-(5,7-dimethoxy-2-oxo-2H-chromen-4-yl)-ethyl ammonium trifluoroacetate]
 | 11800 cm⁻¹ M⁻¹ | 327 nm | 463 nm | N[C@@H](Cc1cc(=O)oc2cc(O)cc(O)c12)C(=O)O.O=C(O)C(F)(F)F [Example 15, (1S)-1-carboxy-2-(5,7-dihydroxy-2-oxo-2H-chromen-4-yl)-ethyl ammonium trifluoroacetate]
0.21 | 12500 cm⁻¹ M⁻¹ | 321 nm | 380 nm | COc1ccc2c(CC[C@H](N)C(=O)O)cc(=O)oc2c1.O=C(O)C(F)(F)F [Example 16, (1S)-1-carboxy-3-(7-methoxy-2-oxo-2H-chromen-4-yl)-propyl ammonium trifluoroacetate]
0.17 | 14600 cm⁻¹ M⁻¹ | 322 nm | 381 nm | COc1ccc2c(CC[C@H](N)C(=O)OCc3ccccc3)cc(=O)oc2c1.O=C(O)C(F)(F)F [Example 17, (1S)-1-benzyloxycarbonyl-3-(7-methoxy-2-oxo-2H-chromen-4-yl)-propyl ammonium trifluoroacetate]
0.13 | 1400 cm⁻¹ M⁻¹ | 274 nm | 303 nm | N[C@@H](Cc1ccc(O)cc1)C(=O)O [Y, tyrosine, reference compound]
